Patent US9243025B2, “Compounds and pharmaceutical compositions for the treatment of viral infections” (Idenix Pharmaceuticals, LLC, priority 2011, dated 2016)
Where two headings read alike, the source gives them in different places.

Experiments:
[1] = tested on: Huh-7 cells containing HCV Coni subgenomic replicon (GS4.1 cells); experiment: HCV replicon assay; format: cell-based; conditions: read-out: HCV Replicon EC50
Method: (§1) Huh-7 cells containing HCV Coni subgenomic replicon (GS4.1 cells), (C. Seeger; Fox Chase University, Philadelphia, Pa., USA), are grown in Dulbecco's Modified Eagle Medium (DMEM) supplemented with 10% fetal bovine serum (FBS), 2 mM L-glutamine, 110 mg/L sodium pyruvate, 1× non-essential amino acids, 100 U/mL penicillin-streptomycin and 0.5 mg/mL G418 (Invitrogen). For dose-response testing, the cells are seeded in 96-well plates at 7.5×10^3 cells/well in a volume of 50 μL and incubated at 37° C./5% CO2. Three hours after plating, 50 μL of ten 2-fold serial dilutions of compounds (highest concentration, 75 μM) are added and cell cultures were incubated at 37° C./5% CO2 in the presence of 0.5% DMSO. Alternatively, compounds are tested at a single concentration of 15 μM. In all cases, Huh-7 cells lacking the HCV replicon served as negative control. The cells are incubated in the presence of compounds for 72 hours after which they were monitored for expression of the NS4A protein by enzyme-linked immunosorbent assay (ELISA). For this, the plates were then fixed for 1 min with 1:1 acetone:methanol, washed twice with phosphate-buffered saline (PBS), 0.1% Tween 20, blocked for 1 hour at room temperature with TNE buffer containing 10% FBS and then incubated for 2 h at 37° C. with the anti-NS4A mouse monoclonal antibody A-236 (ViroGen) diluted in the same buffer. After washing three times with PBS, 0.1% Tween 20, the cells are incubated 1 hour at 37° C. with anti-mouse immunoglobulin G-peroxidase conjugate in TNE, 10% FBS. After washing as described above, the reaction is developed with O-phenylenediamine (Zymed). The reaction is stopped after 30 minutes with […] and the absorbance is read at 492 nm using a Sunrise Tecan spectrophotometer. EC50 values are determined from the % inhibition versus concentration data using a sigmoidal non-linear regression analysis based on four parameters with Tecan Magellan software. When screening at a single concentration, the results are expressed as % inhibition at 15 μM. For cytotoxicity evaluation, GS4.1 cells are treated with compounds as described above and cellular viability was monitored using a Cell Titer 96 AQueous One Solution Cell Proliferation Assay (Promega). CC50 values are determined from the % cytotoxicity versus concentration data with Tecan Magellan software as described above.
Compounds presented in the table below were assayed according to the replicon assay described above.

[2] = Cytotoxicity evaluation in GS4.1 cells (Cell Titer 96 AQueous One Solution Cell Proliferation Assay); format: cell-based; conditions: human, cellular viability, treated as in replicon assay, read-out: HCV Replicon CC50
Method: as §1

[3] = Hepatitis C virus, Huh-7, 72 h, GS4.1 cells, 72 hours incubation, NS4A expression by ELISA

Row | Structure (SMILES) | EC50 [1, 3] | CC50 at 72 h [2] | EC50 ([1]; Hepatitis C virus, Huh-7, 72 h) | EC50 ([1]; GS4.1 cells, 72 hours incubation, NS4A expression by ELISA)
1 | COC(=O)C(CC(C)C)NP(=O)(NC(CC(C)C)C(=O)OC)OC[C@H]1O[C@@H](n2cnc3c(OC)nc(N)nc32)[C@@](C)(O)C1O (stereo in doubt) [Compound 3] | 0.1 to 1 µM | > 75 µM | – | –
2 | COc1nc(N)nc2c1ncn2[C@@H]1O[C@H](COP(=O)(NC(CC(C)C)C(=O)OC(C)C)NC(CC(C)C)C(=O)OC(C)C)C(O)C1(C)O (stereo in doubt) [Compound 12] | 0.1 to 1 µM | > 75 µM | – | –
3 | CCOC(=O)C(Cc1ccccc1)NP(=O)(NC(Cc1ccccc1)C(=O)OCC)OC[C@H]1O[C@@H](n2cnc3c(OC)nc(N)nc32)C(C)(O)C1O (stereo in doubt) [Compound 16] | < 0.1 µM | ≤ 75 µM | – | –
4 | COC(=O)C(CC(C)C)NP(=O)(NC(CC(C)C)C(=O)OC)OC[C@H]1O[C@@H](n2cnc3c(OC)nc(N)nc32)[C@@]2(C)OC(=O)OC12 (some centres unmarked) [Compound 4] | < 0.1 µM | > 75 µM | – | –
5 | CCOC(=O)C(CC(C)C)NP(=O)(NC(CC(C)C)C(=O)OCC)OC[C@H]1O[C@@H](n2cnc3c(NC4CC4)nc(N)nc32)C(C)(O)C1O (some centres unmarked) [Compound 6] | < 0.1 µM | > 75 µM | – | –
6 | COC(=O)C(CC(C)C)NP(=O)(NC(CC(C)C)C(=O)OC)OC[C@H]1O[C@@H](n2cnc3c(NC4CC4)nc(N)nc32)C(C)(O)C1O (some centres unmarked) [Compound 8] | 0.1 to 1 µM | > 75 µM | – | –
7 | COc1nc(N)nc2c1ncn2[C@@H]1O[C@H](COP(=O)(NC(Cc2ccccc2)C(=O)OC(C)C)NC(Cc2ccccc2)C(=O)OC(C)C)C(O)C1(C)O (some centres unmarked) [Compound 13] | 0.1 to 1 µM | ≤ 75 µM | – | –
8 | C#CC1(F)C(O)[C@@H](COP(=O)(NC(CC(C)C)C(=O)OCC)NC(CC(C)C)C(=O)OCC)O[C@H]1n1cnc2c(=O)[nH]c(N)nc21 (some centres unmarked) [Compound 22] | > 10 µM | > 75 µM | – | –
9 | C#CC1(F)C(O)[C@@H](COP(=O)(NC(CC(C)C)C(=O)OC)NC(CC(C)C)C(=O)OC)O[C@H]1n1cnc2c(=O)[nH]c(N)nc21 (some centres unmarked) [Compound 23] | > 10 µM | > 75 µM | – | –
10 | CCOC(=O)[C@@H](NP(=O)(N[C@H](C(=O)OCC)c1ccccc1)OC[C@H]1O[C@@H](n2cnc3c(NC4CC4)nc(N)nc32)C(C)(O)C1O)c1ccccc1 (some centres unmarked) [Compound 30] | 1 to 10 µM | > 75 µM | – | –
11 | CCOC(=O)[C@H](C)NP(=O)(N[C@@H](C)C(=O)OCC)OC[C@H]1O[C@@H](n2cnc3c(NC4CC4)nc(N)nc32)[C@@](C)(O)C1O (some centres unmarked) [Compound 31] | 0.1 to 1 µM | > 75 µM | – | –
12 | CCOC(=O)[C@H](Cc1ccccc1)NP(=O)(N[C@@H](Cc1ccccc1)C(=O)OCC)OC[C@H]1O[C@@H](n2cnc3c(NC4CC4)nc(N)nc32)[C@@](C)(O)C1O (some centres unmarked) [Compound 32] | < 0.1 µM | > 75 µM | – | –
13 | CCCOc1nc(N)nc2c1ncn2[C@@H]1O[C@H](COP(=O)(N[C@@H](CC(C)C)C(=O)OCC)N[C@@H](CC(C)C)C(=O)OCC)C(O)C1(C)O (some centres unmarked) [Compound 33] | < 0.1 µM | ≤ 75 µM | – | –
14 | CCOC(=O)[C@H](CC(C)C)NP(=O)(N[C@@H](CC(C)C)C(=O)OCC)OC[C@H]1O[C@@H](n2cnc3c(N4CCOCC4)nc(N)nc32)C(C)(O)C1O (some centres unmarked) [Compound 34] | 0.1 to 1 µM | > 75 µM | – | –
15 | CCOC(=O)[C@H](CC(C)C)NP(=O)(N[C@@H](CC(C)C)C(=O)OCC)OC[C@H]1O[C@@H](n2cnc3c(N(C)C)nc(N)nc32)C(C)(O)C1O (some centres unmarked) [Compound 35] | < 0.1 µM | > 75 µM | – | –
16 | CCOC(=O)[C@H](CC(C)C)NP(=O)(N[C@@H](CC(C)C)C(=O)OCC)OC[C@H]1O[C@@H](n2cnc3c(N4CCCC4)nc(N)nc32)C(C)(O)C1O (some centres unmarked) [Compound 36] | < 0.1 µM | > 75 µM | – | –
17 | CCOC(=O)[C@H](CC(C)C)NP(=O)(N[C@@H](CC(C)C)C(=O)OCC)OC[C@H]1O[C@@H](n2cnc3c(=O)[nH]c(N)nc32)C(C)(O)C1O (some centres unmarked) [Compound 37] | 1 to 10 µM | > 75 µM | – | –
18 | CCOC(=O)[C@H](CC(C)C)NP(=O)(N[C@@H](CC(C)C)C(=O)OCC)OC[C@H]1O[C@@H](n2cnc3c(NC4CCCC4)nc(N)nc32)C(C)(O)C1O (some centres unmarked) [Compound 38] | < 0.1 µM | ≤ 75 µM | – | –
19 | CCCOC(=O)[C@H](CC(C)C)NP(=O)(N[C@@H](CC(C)C)C(=O)OCCC)OC[C@H]1O[C@@H](n2cnc3c(OC)nc(N)nc32)[C@@](C)(O)C1O (some centres unmarked) [Compound 43] | < 0.1 µM | ≤ 75 µM | – | –
20 | CCCCOC(=O)[C@H](CC(C)C)NP(=O)(N[C@@H](CC(C)C)C(=O)OCCCC)OC[C@H]1O[C@@H](n2cnc3c(OC)nc(N)nc32)[C@@](C)(O)C1O (some centres unmarked) [Compound 44] | < 0.1 µM | ≤ 75 µM | – | –
21 | C#CC1(F)C(O)[C@@H](COP(=O)(NCC(=O)OCC)NCC(=O)OCC)O[C@H]1n1cnc2c(=O)[nH]c(N)nc21 (some centres unmarked) [Compound 48] | 1 to 10 µM | > 75 µM | – | –
22 | CCOC(=O)[C@H](CC(C)C)NP(=O)(N[C@@H](CC(C)C)C(=O)OCC)OC[C@H]1O[C@@H](n2ccc(OC)nc2=O)[C@](C)(O)[C@@H]1O [Compound 55] | 0.1 to 1 µM | > 75 µM | – | –
23 | COc1ccn([C@@H]2O[C@H](COP(=O)(NCc3ccccc3)OCCSC(=O)C(C)(C)CO)[C@@H](O)[C@@]2(C)O)c(=O)n1 (some centres unmarked) [Compound 56] | < 0.1 µM | > 75 µM | – | –
24 | COc1nc(N)nc2c1ncn2[C@@H]1O[C@H](COP(=O)(NC(C)C)OCCSC(=O)C(C)(C)CO)C(O)C1(C)O (some centres unmarked) [Compound 57] | – | – | 0.1 to 1 µM | –
25 | COc1nc(N)nc2c1ncn2[C@@H]1O[C@H](COP(=O)(NCc2ccccc2)OCCSC(=O)C(C)(C)CO)C(O)C1(C)O (some centres unmarked) [Compound 57] | – | > 75 µM | < 0.1 µM | –
26 | CCOC(=O)[C@@H](NP(=O)(N[C@@H](C(=O)OCC)C(C)C)OC[C@H]1O[C@@H](n2cnc3c(OC)nc(N)nc32)C(C)(O)C1O)C(C)C (some centres unmarked) [Compound 58] | < 0.1 µM | > 75 µM | – | –
27 | CCOC(=O)[C@@H](NP(=O)(N[C@@H](C(=O)OCC)c1ccccc1)OC[C@H]1O[C@@H](n2cnc3c(OC)nc(N)nc32)C(C)(O)C1O)c1ccccc1 (some centres unmarked) [Compound 59] | 1 to 10 µM | > 75 µM | – | –
28 | COC(=O)C1CCCN1P(=O)(OC[C@H]1O[C@@H](n2cnc3c(OC)nc(N)nc32)C(C)(O)C1O)N1CCCC1C(=O)OC (some centres unmarked) [Compound 60] | 0.1 to 1 µM | > 75 µM | – | –
29 | CCOC(=O)[C@@H](CC(C)C)NP(=O)(N[C@H](CC(C)C)C(=O)OCC)OC[C@H]1O[C@@H](n2cnc3c(OC)nc(N)nc32)C(C)(O)C1O (some centres unmarked) [Compound 61] | – | > 75 µM | – | 1 to 10 µM
30 | CCOC(=O)[C@H](CC(C)C)NP(=O)(N[C@H](CC(C)C)C(=O)OCC)OC[C@H]1O[C@@H](n2cnc3c(OC(C)C)nc(N)nc32)C(C)(O)C1O (some centres unmarked) [Compound 62] | < 0.1 µM | > 75 µM | – | –
